Reference: patent US9867879B2 (Vanderbilt University, priority 2015, dated 2018)
“Also recorded” adds a separate entry of the source. Read-outs that look alike come from different tables or passages of the source.

What was measured:
ΔmenB = test: Growth inhibition IC50, ΔmenB; assay type: cell-based, S. aureus; conditions: Staphylococcus aureus, 9 h, read-out: IC50 ΔmenB
Protocol: Cultures of wild type S. aureus strain Newman and ΔmenB^14 were grown in aeration tubes aerobically at 37° C. with shaking for 15-18 h. Anaerobic cultures were prepared by growing bacteria at 37° C. without shaking in an anaerobic chamber for 15-18 h. Bacteria from each condition were subcultured 1:100 into TSB containing various concentrations of compound in a 96 well plate. Aerobic wild type and ΔmenB plates are incubated aerobically at 37° C. with shaking while anaerobic plates were grown in an anaerobic chamber (Coy) at 37° C. without shaking. The absorbance at 600 nm (OD600) was determined after 9 h of growth and the fraction of growth at each compound concentration is determined by dividing the OD600 by the vehicle control (DMSO) value. IC50s were calculated using Graphpad Prism 6 and errors are reported as 95% confidence intervals. […]

[1] = system: wild type S. aureus strain Newman; test: Growth inhibition IC50, Newman anaerobic (fermenting); assay type: cell-based; conditions: for IC50: Staphylococcus aureus, NEWMAN, 9 h of growth, anaerobic chamber, 95% confidence interval, >60 μM considered nontoxic; for toxicity to fermenting / anaerobic S. aureus (in words): anaerobic Newman and ΔmenB, from IC50 data
Protocol: (§1) Cultures of wild type S. aureus strain Newman and ΔmenB^14 were grown in aeration tubes aerobically at 37° C. with shaking for 15-18 h. Anaerobic cultures were prepared by growing bacteria at 37° C. without shaking in an anaerobic chamber for 15-18 h. Bacteria from each condition were subcultured 1:100 into TSB containing various concentrations of compound in a 96 well plate. Aerobic wild type and ΔmenB plates are incubated aerobically at 37° C. with shaking while anaerobic plates were grown in an anaerobic chamber (Coy) at 37° C. without shaking. The absorbance at 600 nm (OD600) was determined after 9 h of growth and the fraction of growth at each compound concentration is determined by dividing the OD600 by the vehicle control (DMSO) value. IC50s were calculated using Graphpad Prism 6 and errors are reported as 95% confidence intervals.
(§2) Wild type S. aureus strain Newman was grown in an anaerobic chamber in appropriate media to ensure exclusion of terminal electron acceptors sufficient to force the bacteria to ferment. […] The arbitrary cut off point for toxicity of 60 μM was chosen as many of the compounds were not entirely soluble above this concentration.

HssRS = test: microbe, parasite or virus in culture; assay type: cell-based, S. aureus; conditions: for HssRS activation in single point screen: 50 μM, fraction of activation relative to 1, cut-off 0.05, in words; for EC50: Staphylococcus aureus, 6 h; for Efficacy: percent activation of HssRS compared to 1 at 50 μM, error one standard deviation
Protocol: Previously reported strains were used.^11 Cultures grown overnight in 5 ml TSB with 10 μg mL^−1 chloramphenicol for 15-18 h were subcultured 1:100 into 0.5 mL TSB with 10 μg mL^−1 chloramphenicol containing compound and incubated at 37° C., 180 rpm for 6 h. Cells were washed and lysed as previously described. 200 μL of a 200 μM catechol solution in 100 mM potassium phosphate (pH 8.0) was added to 20 μL of lysate and the oxidation of catechol was followed by monitoring absorbance at 375 nm for 10 min. Samples were normalized to protein concentration as determined by BCA assay (Pierce).
The above XylE procedure was followed using different concentrations of compound. The data were then entered into Graphpad Prism 6 and fit to a curve to determine EC50 values.
HssRS activation. The library was screened for activation of the heme stress response as an indicator for activation of heme biosynthesis in S. aureus. We began by screening at the single point concentration of 50 μM using a previously described reporter assay (FIG. 4).^11 In this assay, Newman harboring a plasmid with the hrt promoter fused to xylE, a gene encoding a catechol oxidase, is treated with compound for six hours, the bacteria lysed, and the oxidation of catechol by XylE quantified by spectrophotometry. An increase in absorbance due to the oxidation of catechol indicates elevated levels of xylE transcription and hrt promoter activity. Results are expressed as the fraction of activation of HssRS by the compound compared to 1. […] With reference to FIG. 8, activation of HssRS by 3a and 3b at 50 μM. Activity is presented as the fraction of activation by the indicated derivative relative to 1 at 50 μM.

[2] = system: wild type S. aureus strain Newman; test: Growth inhibition IC50, Newman aerobic; assay type: cell-based; conditions: Staphylococcus aureus, NEWMAN, 95% confidence interval, >60 μM considered nontoxic
Protocol: as §1, §2

[3] = 9 h, read-out: IC50 Newman aerobic, 9 h of growth, aerobic
[4] = 9 h of growth, aerobic, read-out: IC50 Newman aerobic

Row | SMILES | IC50 (ΔmenB) [µM] | IC50 [1] [µM] | toxicity to fermenting / anaerobic S. aureus (in words) [1] | HssRS activation in single point screen (HssRS) | IC50 [2, 3] [µM] | EC50 (HssRS) [µM] | EC50 (HssRS; read-out: pEC50 (converted)) [µM] | Efficacy (HssRS) [%] | IC50 [2, 4] [µM] | toxicity relative to 4b ([1]; fermenting wildtype S. aureus and ΔmenB) | HssRS activation (in words) (HssRS; summary statements, concentration not fixed)
1 | Oc1ccccc1-c1cc[nH]n1 [Compound 2j, 2-(1H-pyrazol-3-yl)phenol] | > 60 | > 60 | nontoxic under all conditions | eliminates activity compared to 1 and 1a | > 60 |  |  |  |  |  | 
2 | COc1ccccc1-c1cc(-c2ccccc2F)[nH]n1 [Compound 3b, 5-(2-fluorophenyl)-3-(2-methoxyphenyl)-1H-pyrazole] | > 60 | > 60 | eliminates toxicity |  | > 60 |  |  |  |  |  | 
3 | Oc1ccccc1-c1cc(-c2ccco2)[nH]n1 [Compound 1a, 2-(5-(furan-2-yl)-1H-pyrazol-3-yl)phenol] | 35.6 |  | relatively nontoxic to fermenting S. aureus | modest loss of activity compared to 1 |  | 30.4 | 32.4 | 28.2 ± 5.4 | > 60 |  | 
4 | Oc1ccccc1-c1cc(-c2ccoc2)[nH]n1 [Compound 2b] | > 60 | > 60 |  |  | > 60 |  |  |  |  |  | 
5 | Cc1cc(-c2ccccc2O)n[nH]1 [Compound 2k, 2-(5-methyl-1H-pyrazol-3-yl)phenol] | > 60 | > 60 | nontoxic under all conditions |  | > 60 |  |  |  |  |  | 
6 | COc1c(-c2cc(-c3ccco3)[nH]n2)ccc2ccccc12 [Compound 1c, 5-(furan-2-yl)-3-(1-methoxynaphthalen-2-yl)-1H-pyrazole] | > 60 | > 60 | eliminates toxicity | complete loss of activity | > 60 |  |  |  |  |  | 
7 | Cn1nc(-c2ccco2)cc1-c1ccc2ccccc2c1O [Compound 4a, 2-(3-(furan-2-yl)-1-methyl-1H-pyrazol-5-yl)naphthalen-1-ol] | 15.7 | 26.5 | maintains toxicity comparable to the parent molecule | complete loss of activity | > 60 |  |  |  |  | approximately five times less toxic | 
8 | Oc1ccccc1-c1cc(-c2cccnc2)[nH]n1 [Compound 2h, 2-(5-(pyridin-3-yl)-1H-pyrazol-3-yl)phenol] | > 60 | > 60 |  |  | > 60 |  |  |  |  |  | 
9 | Oc1ccccc1-c1cc(-c2ccccc2)[nH]n1 [Compound 2c, 2-(5-phenyl-1H-pyrazol-3-yl)phenol] | 25.2 | 24 | anaerobic toxicity similar to 1; also recorded: restores toxicity comparable to 1 | restore activity comparable to 1 |  | 14.6 | 21.9 | 87.8 ± 23.7 | > 60 |  | maintains HssRS activity
10 | O=C(Nc1ccccc1-c1cc(-c2ccco2)[nH]n1)c1cccc2ccccc12 [Compound 1k, N-(2-(5-(furan-2-yl)-1H-pyrazol-3-yl)phenyl)-1-naphthamide] | 5.89 | 13.4 |  |  | > 60 |  |  |  |  |  | 
11 | Oc1ccc(-c2cc(-c3ccco3)[nH]n2)cc1 [Compound 1f] | > 60 | > 60 |  | loss of HssRS activation compared to 1 and 1a | > 60 |  |  |  |  |  | 
12 | O=C(Nc1ccccc1-c1cc(-c2ccco2)[nH]n1)c1ccco1 [Compound 1l, N-(2-(5-furan-2-yl)-1H-pyrazol-3-yl)phenylfuran-2-carboxamide] | 21.4 | 28.8 |  |  | > 60 |  |  |  |  |  | 
13 | Oc1cccc(-c2cc(-c3ccco3)[nH]n2)c1 [Compound 1e, 3-(5-(furan-2-yl)-1H-pyrazol-3-yl)phenol] | > 60 | > 60 |  | loss of HssRS activation compared to 1 and 1a | > 60 |  |  |  |  |  | 
14 | COc1ccc(-c2cc(-c3ccco3)[nH]n2)c(O)c1 [Compound 1b, 2-(5-(furan-2-yl)-1H-pyrazol-3-yl)-5-methoxyphenol] | > 60 | > 60 | relatively nontoxic to fermenting S. aureus | modest loss of activity compared to 1 | > 60 | 50.2 | 50.1 | 26.2 ± 6.7 |  |  | 
15 | Oc1ccccc1-c1cc(-c2ccccn2)[nH]n1 [Compound 2g] | > 60 | > 60 |  |  | > 60 |  |  |  |  |  | 
16 | CC(C)(C)c1cc(-c2ccccc2O)n[nH]1 [Compound 2m, 2-(5-(tert-butyl)-1H-pyrazol-3-yl)phenol] | > 60 | > 60 | nontoxic under all conditions |  | > 60 |  |  |  |  |  | 
17 | CCc1cc(-c2ccccc2O)n[nH]1 [Compound 2l, 2-(5-ethyl-1H-pyrazol-3-yl)phenol] | > 60 | > 60 | nontoxic under all conditions |  | > 60 |  |  |  |  |  | 
18 | COc1ccccc1-c1cc(-c2ccco2)[nH]n1 [Compound 1d, 5-(furan-2-yl)-3-(2-methoxyphenyl)-1H-pyrazole] | > 60 | > 60 |  | loss of HssRS activation compared to 1 and 1a | > 60 |  |  |  |  |  | 
19 | CS(=O)(=O)Nc1ccccc1-c1cc(-c2ccco2)[nH]n1 [Compound 1h, N-(2-(5-(furan-2-yl)-1H-pyrazol-3-yl)phenyl)methanesulfonamide] | > 60 | > 60 | nontoxic under fermentative conditions | loss of HssRS activation compared to 1 and 1a | > 60 |  |  |  |  |  | 
20 | c1ccc(-c2cc(-c3ccco3)[nH]n2)cc1 [Compound 1g, 5-(furan-2-yl)-3-phenyl-1H-pyrazole] | > 60 | > 60 |  | loss of HssRS activation compared to 1 and 1a | > 60 |  |  |  |  |  | 
21 | COc1ccc(C(=O)Nc2ccccc2-c2cc(-c3ccco3)[nH]n2)cc1 [Compound 1j, N-(2-(5-(furan-2-yl)-1H-pyrazol-3-yl)phenyl)-4-methoxybenzamide] | 6.63 | 11.6 |  |  | > 60 |  |  |  |  |  | 
22 | Cn1nc(-c2ccc3ccccc3c2O)cc1-c1ccco1 [Compound 4b, 2-(5-(furan-2-yl)-1-methyl-1H-pyrazol-3-yl)naphthalen-1-ol] | 3.3 | 4.27 |  | complete loss of activity | > 60 |  |  |  |  |  | 
23 | Oc1ccccc1-c1cc(C2CCCC2)[nH]n1 [Compound 2n, 2-(5-cyclopentyl-1H-pyrazol-3-yl)phenol] | 29.7 | 25.3 | comparably toxic to 1 |  | > 60 |  |  |  |  |  | 
